Results published in publication PMC9725750, “The clinical pharmacology of tafenoquine in the radical cure of Plasmodium vivax malaria: An individual patient data meta-analysis” (eLife, 2022).
Like-named read-outs stand apart in the source and are kept apart here.

Columns and labels:
[1] = Population pharmacokinetic modelling of plasma tafenoquine (patients and healthy volunteers); assay type: in vivo, human; settings: for Patient – MTT covariate / Patient – Vc/F covariate / Patient – Vp/F covariate: Malaria patients: 1 + Θ; for Vomit – F covariate: Vomiting: 1 + Θ; for Age – CL/F covariate: linear, 1 + Θ × (Age-35); for Vd/F: human, plasma, oral, read-out: Vc/F, apparent central volume of distribution; for IIV CL/F, inter-individual variability / IIV F, inter-individual variability / IIV MTT, inter-individual variability / IIV Q/F, inter-individual variability / IIV Vp/F, inter-individual variability / RUV, additive residual error: variance estimate
From the text: Tafenoquine pharmacokinetics have been described in detail previously ([Thakkar et al., 2018]). Tafenoquine is a slowly eliminated 8-aminoquinoline antimalarial drug with a terminal elimination half-life of around 15 days. The metabolites have not been well characterised. Tafenoquine pharmacokinetics have been characterised previously by a two-compartment pharmacokinetic (PK) model (i.e. bi-exponential decay model) with allometric scaling of clearance and volume parameters ([Thakkar et al., 2018]). We inspected visually all individual drug level profiles and excluded 10 concentrations from 8 patients which were substantial outliers. A total of 15 malaria patients vomited within one hour of drug administration. […] One patient was not re-dosed and had very low tafenoquine levels during follow-up. We removed this patient from all analyses as it is difficult to estimate the amount of drug ingested. For the remaining 14 patients who vomited and were re-dosed, time since dose was calculated as the time since the second dose (in some patients this was the next day). All available tafenoquine concentration measurements were transformed into their natural logarithms and characterised using nonlinear mixed-effects modelling in the software NONMEM v7.4 (Icon Development Solution, Ellicott City, MD). […] One-, two-, and three-compartment dispositional models were evaluated, as well as different absorption models (i.e. first-order absorption and a fixed number of transit absorption compartments). Inter-individual variability was implemented as an exponential function of all structural PK parameters. The first-order conditional estimation method with interactions (FOCE-I) and subroutine ADVAN5 TRANS1 were used throughout the study. Body weight was implemented as a fixed allometric function on clearance parameters (exponent of 0.75) and as a linear function on volume parameters (exponent of 1.0). Additional, biologically relevant, covariates (i.e. age, sex, vomiting, tafenoquine formulation and patient vs healthy volunteers) were evaluated on all PK parameters using a linearized stepwise addition (p<0.01) and backward elimination (p<0.001) covariate approach.
Potential model mis-specification and systematic errors were evaluated by basic goodness-of-fit diagnostics. Model robustness and parameter confidence intervals were evaluated by a sampling-important-resampling (SIR) procedure ([Dosne et al., 2017]). Predictive performance of the final model was illustrated by prediction-corrected visual predictive checks (n=2,000) ([Bergstrand et al., 2011]). The 5th, 50th, and 95th percentiles of the observed concentrations were overlaid with the 95% confidence intervals of each simulated percentile to detect model bias. Under the population mixed-effects model we estimated for each healthy volunteer and each patient in the three efficacy studies: (i) the area under the plasma concentration time curve ( AUC[0,∞ ); (ii) the maximum peak concentration ( Cmax ); and (iii) the terminal elimination half-life (t1/2). […] Details of the final model are given in Appendix 6.
For the terminal elimination half-life, multiple patients had estimated values greater than 30 days. On examination, the NONMEM model estimates of the terminal elimination half-life were not robust with respect to the model structure. In order to derive robust half-life estimates, we fit a robust (using a student- t likelihood, [Lange et al., 1989]) Bayesian hierarchical linear model to the observed log-concentrations post day 4 (terminal phase; random intercept and slope). […] The half-life is then defined as -log(2)/βi where βi is the individual slope estimate for patient i . Values below the lower limit of quantification were treated as left-censored observations with censoring value equal to log(2 ng/ml). The model included an interaction term between time and the log patient weight (clearance was associated with weight); and a dose (mg/kg) dependent intercept term. […]

[2] = Tolerability and safety: acute vomiting, severe haemolysis, haemoglobin change; assay type: in vivo, human; settings: for Hb change to day 2/3 / Hb change to day 7±1: mean (sd)
Method: For tolerability, acute vomiting was defined as vomiting within 1 hr of tafenoquine dosing, and for safety, three definitions of severe haemolysis were assessed:
• Relative fall in haemoglobin by more than 25% to <7 g/dL • Absolute fall in haemoglobin greater than 5 g/dL • Any haemoglobin fall to <5 g/dL
Tolerability and safety events were categorised according to tafenoquine treatment and doses (no tafenoquine, <3.75 mg/kg tafenoquine, [3.75,6.25) mg/kg tafenoquine, [6.25,8.75) mg/kg tafenoquine, ≥8.75 mg/kg tafenoquine). The change in haemoglobin concentration from day 0 to the minimum on day 2 or 3, the expected day of nadir ([Commons et al., 2019]), was calculated to assess changes in haemoglobin associated with tafenoquine dose. Mixed effects models were used to explore the association between tafenoquine mg/kg dose, day 7 MetHb concentration, AUC[0,∞) , Cmax, and t1/2 adjusting for age, sex, day 0 parasite density and day 0 haemoglobin, with random effects for study and site.

[3] = population estimate (%RSE), typical healthy individual 70 kg, 35 years
[4] = all tafenoquine-treated patients

COc1cc(C)c2c(Oc3cccc(C(F)(F)F)c3)c(OC)cc(NC(C)CCCN)c2n1 (stereo not shown) [tafenoquine]
CL/F, oral elimination clearance ([1]; SIR median (95% CI)): 3.14 (2.71–3.70) L/h | MTT, mean absorption transit time over 6 transit compartments ([1]; SIR median (95% CI)): 3.05 (2.30–3.87) h | Vp/F, apparent peripheral volume of distribution ([1]; SIR median (95% CI)): 318 (248–424) L | Patient – MTT covariate ([1]; SIR median (95% CI)): 0.929 (0.605–1.51) | Patient – Vc/F covariate ([1]; SIR median (95% CI)): –0.282 (-0.0784–-0.395) | Patient – Vp/F covariate ([1]; SIR median (95% CI)): 1.30 (0.670–1.88) | Vomit – F covariate ([1]; SIR median (95% CI)): 0.434 (0.315–0.608) | Age – CL/F covariate ([1]; SIR median (95% CI)): –0.00435 (-0.00206–-0.00589) | decrease in CL/F per 10 years of age increase from the median age of 35 years ([1]; covariate Age – CL/F, final model): 4.34% | lower central volume of distribution in patients compared to healthy volunteers ([1]; covariate Patient – Vc/F): 27.6% | higher total dose when 1st dose was vomited and re-administered ([1]; covariate Vomit – F, relative oral bioavailability): 44.7% | Vd/F ([1]; SIR median (95% CI)): 1360 L | Vd/F [1, 3]: 1330 L | Patient – MTT covariate ([1]; population estimate (%RSE)): 0.937 (24.7) | Patient – Vc/F covariate ([1]; population estimate (%RSE)): –0.276 (29.4) | Patient – Vp/F covariate ([1]; population estimate (%RSE)): 1.40 (21.6) | Vomit – F covariate ([1]; population estimate (%RSE)): 0.447 (16.3) | Age – CL/F covariate ([1]; population estimate (%RSE)): –0.00434 (23.4) | CL/F, oral elimination clearance [1, 3]: 3.14 (8.43) L/h | MTT, mean absorption transit time over 6 transit compartments [1, 3]: 3.14 (12.8) h | Vp/F, apparent peripheral volume of distribution [1, 3]: 311 (14.4) L | IIV CL/F, inter-individual variability ([1]; SIR median (95% CI)): 0.0349 (0.0193–0.0451) | IIV F, inter-individual variability ([1]; SIR median (95% CI)): 0.0870 (0.0559–0.120) | IIV MTT, inter-individual variability ([1]; SIR median (95% CI)): 0.0887 (0.0585–0.124) | IIV Q/F, inter-individual variability ([1]; SIR median (95% CI)): 0.156 (0.1000–0.226) | IIV Vp/F, inter-individual variability ([1]; SIR median (95% CI)): 0.0265 (0.0153–0.0400) | RUV, additive residual error ([1]; SIR median (95% CI)): 0.0240 (0.0170–0.0333) | IIV CL/F, inter-individual variability ([1]; population estimate (%RSE)): 0.0338 (18.8) | IIV F, inter-individual variability ([1]; population estimate (%RSE)): 0.0850 (19.2) | IIV MTT, inter-individual variability ([1]; population estimate (%RSE)): 0.0831 (21.0) | IIV Q/F, inter-individual variability ([1]; population estimate (%RSE)): 0.151 (20.5) | IIV Vp/F, inter-individual variability ([1]; population estimate (%RSE)): 0.0256 (25.3) | RUV, additive residual error ([1]; population estimate (%RSE)): 0.0225 (18.8) | additional mean haemoglobin reduction at day 2 or 3 ([2]; 300 mg dose in a 60 kg adult): around 0.1 g/dL | additional mean reduction in Hb at day 2 or 3, relative ([2]; 300 mg dose in a 60 kg adult): < 1% | patients who vomited within 1 hour of oral administration ([2]; 15/651 patients): 2.3% | haemoglobin increase per one day increase in terminal elimination half-life ([2]; 95% CI 0.01 to 0.04): 0.02 g/dL | OR for vomiting per mg/kg increase ([2]; 95% CI 0.88–1.32): 1.08 | change in haemoglobin concentration per one percent increase in day 7 MetHb ([2]; Hb on day 2 or 3, 95% CI –0.12 to –0.03): –0.08 g/dL | Absolute Hb fall >5 g/dL ([2]; TQ 3.75-<6.25mg/kg, n=378): 1 (0.3%) n (%) | Hb fall >25% to<7 g/dL ([2]; TQ 3.75-<6.25mg/kg, n=378): 0 (0%) n (%) | Hb fall to <5 g/dL ([2]; TQ 3.75-<6.25mg/kg, n=378): 0 (0%) n (%) | Absolute Hb fall >5 g/dL ([2]; TQ 6.25-<8.75mg/kg, n=56): 0 (0%) n (%) | Hb fall >25% to<7 g/dL ([2]; TQ 6.25-<8.75mg/kg, n=56): 0 (0%) n (%) | Hb fall to <5 g/dL ([2]; TQ 6.25-<8.75mg/kg, n=56): 0 (0%) n (%) | Absolute Hb fall >5 g/dL ([2]; TQ <3.75mg/kg, n=171): 0 (0%) n (%) | Hb fall >25% to<7 g/dL ([2]; TQ <3.75mg/kg, n=171): 0 (0%) n (%) | Hb fall to <5 g/dL ([2]; TQ <3.75mg/kg, n=171): 0 (0%) n (%) | Absolute Hb fall >5 g/dL ([2]; TQ > 8.75mg/kg, n=44): 0 (0%) n (%) | Hb fall >25% to<7 g/dL ([2]; TQ > 8.75mg/kg, n=44): 0 (0%) n (%) | Hb fall to <5 g/dL ([2]; TQ > 8.75mg/kg, n=44): 0 (0%) n (%) | patients with a fall in Hb to less than 5 g/dL [2, 4]: no patients | patients with greater than 5 g/dL fall in Hb [2, 4]: One patient | patients with greater than 25% fall in Hb to <7 g/dL [2, 4]: no patients | mean haemoglobin reduction at day 2 or 3 ([2]; dose increased to 450 mg): 0.15 g/dL | Hb change to day 2/3 ([2]; TQ 3.75-<6.25mg/kg, n=378): –0.7 (0.9) | Hb change to day 7±1 ([2]; TQ 3.75-<6.25mg/kg, n=378): –0.4 (1.1) | Hb change to day 2/3 ([2]; TQ 6.25-<8.75mg/kg, n=56): –0.8 (0.8) | Hb change to day 7±1 ([2]; TQ 6.25-<8.75mg/kg, n=56): –0.4 (1.0) | Hb change to day 2/3 ([2]; TQ <3.75mg/kg, n=171): –0.6 (0.9) | Hb change to day 7±1 ([2]; TQ <3.75mg/kg, n=171): –0.3 (0.9) | Hb change to day 2/3 ([2]; TQ > 8.75mg/kg, n=44): –0.6 (1.1) | Hb change to day 7±1 ([2]; TQ > 8.75mg/kg, n=44): –0.3 (1.3) | haemoglobin change at day 2 or 3 per additional mg/kg of tafenoquine ([2]; mixed effects linear regression, 95% CI –0.04 to 0.00, P=0.02): –0.02 g/dL
